Source: ChEMBL document CHEMBL1909046, “DrugMatrix in vitro pharmacology data”

How the values were obtained:
B2 bradykinin receptor = target: T1, B2 bradykinin receptor (Homo sapiens, UniProt P30411); assay type: cell membranes, Membrane; conditions: chem-1; further: in other assays of this panel Not Active means under 50% inhibition at 10 µM
T1 sequence (P30411 whole entry): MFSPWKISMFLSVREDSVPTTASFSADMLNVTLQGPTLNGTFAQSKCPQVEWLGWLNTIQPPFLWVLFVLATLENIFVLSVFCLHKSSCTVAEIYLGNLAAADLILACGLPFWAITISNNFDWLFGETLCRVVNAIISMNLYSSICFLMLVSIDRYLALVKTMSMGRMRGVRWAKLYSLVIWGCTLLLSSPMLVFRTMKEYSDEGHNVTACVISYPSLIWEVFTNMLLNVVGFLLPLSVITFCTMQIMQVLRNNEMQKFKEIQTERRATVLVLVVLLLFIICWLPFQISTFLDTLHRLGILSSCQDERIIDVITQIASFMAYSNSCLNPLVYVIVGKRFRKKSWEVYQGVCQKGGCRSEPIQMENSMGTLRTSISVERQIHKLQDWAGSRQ

[1] = DRUGMATRIX: Potassium Channel [KATP] radioligand binding (ligand: [3H] Glyburide); assay type: cell membranes, Membrane; conditions: hit-t15; Not Active = under 50% inhibition at 10 µM
[2] = target: Receptor tyrosine-protein kinase erbB-2 (Homo sapiens, UniProt P04626); assay type: cell-based; conditions: insect cells;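 further: inhibition of HER2 kinase enzyme activity, measured with Poly(Glu:Tyr) as the phosphorylation substrate; in other assays of this panel Not Active means under 50% inhibition at 10 µM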
[3] = DRUGMATRIX: Phorbol Ester radioligand binding (ligand: [3H] PDBu); assay type: cell membranes, Mus musculus, ICR, Brain, Membrane; conditions: Not Active = under 50% inhibition at 10 µM
Caspase-1 = target: T2, Caspase-1 (Homo sapiens, UniProt P29466); set-up: species or system Escherichia coli;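 further: Caspase-1 enzyme inhibition assay with a peptide substrate; in other assays of this panel Not Active means under 50% inhibition at 10 µM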
T2 sequence (P29466 whole entry): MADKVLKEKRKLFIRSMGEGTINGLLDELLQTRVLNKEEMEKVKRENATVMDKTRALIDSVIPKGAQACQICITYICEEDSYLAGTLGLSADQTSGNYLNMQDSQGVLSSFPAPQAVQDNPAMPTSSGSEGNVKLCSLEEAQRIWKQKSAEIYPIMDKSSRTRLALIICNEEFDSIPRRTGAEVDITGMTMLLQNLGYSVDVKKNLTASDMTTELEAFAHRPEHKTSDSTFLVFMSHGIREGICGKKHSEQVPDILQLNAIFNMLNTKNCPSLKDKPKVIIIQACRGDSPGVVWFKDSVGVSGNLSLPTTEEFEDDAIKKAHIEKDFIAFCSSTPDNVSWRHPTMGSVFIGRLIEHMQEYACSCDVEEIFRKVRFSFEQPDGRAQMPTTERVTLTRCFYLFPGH

[4] = DRUGMATRIX: Glutamate, AMPA radioligand binding (ligand: [3H] AMPA); assay type: cell membranes, Rattus norvegicus, Wistar, Cerebral cortex, Membrane; conditions: Not Active = under 50% inhibition at 10 µM
[5] = target: Delta-type opioid receptor (Homo sapiens, UniProt P41143); assay type: cell membranes, HEK293, Membrane; conditions: hek293; further: in other assays of this panel Not Active means under 50% inhibition at 10 µM
Delta-type opioid receptor, sequence (P41143 whole entry): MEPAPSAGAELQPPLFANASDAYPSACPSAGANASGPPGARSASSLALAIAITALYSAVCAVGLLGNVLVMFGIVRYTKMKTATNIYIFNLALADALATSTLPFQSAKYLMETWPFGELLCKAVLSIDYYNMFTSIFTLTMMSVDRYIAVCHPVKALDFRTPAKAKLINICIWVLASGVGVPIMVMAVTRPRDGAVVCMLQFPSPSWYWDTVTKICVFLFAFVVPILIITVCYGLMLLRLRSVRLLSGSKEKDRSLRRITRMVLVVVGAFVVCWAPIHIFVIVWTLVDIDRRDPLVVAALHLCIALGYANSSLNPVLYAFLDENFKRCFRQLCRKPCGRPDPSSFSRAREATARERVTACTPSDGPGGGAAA

[6] = target: T3, C-C chemokine receptor type 4 (Homo sapiens, UniProt P51679); assay type: cell membranes, Chem-1, Membrane; conditions: chem-1; further: in other assays of this panel Not Active means under 50% inhibition at 10 µM
T3 sequence (P51679 whole entry): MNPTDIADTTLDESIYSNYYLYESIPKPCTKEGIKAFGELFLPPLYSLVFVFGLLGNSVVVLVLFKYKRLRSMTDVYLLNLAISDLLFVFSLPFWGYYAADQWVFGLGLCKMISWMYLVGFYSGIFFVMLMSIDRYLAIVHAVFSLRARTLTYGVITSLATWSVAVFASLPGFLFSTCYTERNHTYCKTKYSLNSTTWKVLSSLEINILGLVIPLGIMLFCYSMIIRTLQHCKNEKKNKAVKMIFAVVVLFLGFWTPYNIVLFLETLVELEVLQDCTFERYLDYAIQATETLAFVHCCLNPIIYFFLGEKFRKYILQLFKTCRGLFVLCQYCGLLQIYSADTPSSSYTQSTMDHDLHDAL

CC[C@@]1(O)C(=O)OCc2c1cc1n(c2=O)Cc2cc3c(CN(C)C)c(O)ccc3nc2-1 [TOPOTECAN]
Not Active: IC50 (B2 bradykinin receptor) | IC50 [1] | Ki [1] | IC50 [2] | IC50 [3] | Ki [3] | IC50 (Caspase-1) | IC50 [4] | Ki [4] | IC50 [5] | IC50 [6]

CC1=C(/C=C/C(C)=C/C=C/C(C)=C/C(=O)O)C(C)(C)CCC1 [TRETINOIN]
Not Active: IC50 (B2 bradykinin receptor) | IC50 [1] | Ki [1] | IC50 [2] | IC50 [3] | Ki [3] | IC50 (Caspase-1) | IC50 [4] | Ki [4] | IC50 [5] | IC50 [6]

CC(Cl)(Cl)Cl [TRICHLOROETHANE]
Not Active: IC50 (B2 bradykinin receptor) | IC50 [1] | Ki [1] | IC50 [2] | IC50 [3] | Ki [3] | IC50 (Caspase-1) | IC50 [4] | Ki [4] | IC50 [5] | IC50 [6]

CN1C(=O)OC(C)(C)C1=O [TRIMETHADIONE]
Not Active: IC50 (B2 bradykinin receptor) | IC50 [1] | Ki [1] | IC50 [2] | IC50 [3] | Ki [3] | IC50 (Caspase-1) | IC50 [4] | Ki [4] | IC50 [5] | IC50 [6]

LEAD(IV) ACETATE
Not Active: IC50 (B2 bradykinin receptor) | Ki (B2 bradykinin receptor) | IC50 [1] | Ki [1] | IC50 [2] | Ki [2] | IC50 [3] | Ki [3] | IC50 (Caspase-1) | Ki (Caspase-1) | IC50 [4] | Ki [4] | IC50 [5] | Ki [5] | IC50 [6] | Ki [6]
